How the values were obtained:
[1] = target: CDK2/Cyclin E1 (Homo sapiens (Human), UniProt P24941); test: biochemical; settings: CDK2_Ki (nM), phosphorylated CDK2/Cyclin E1, 150 μM ATP, Morrison tight-binding fit
Protocol: The assay was initiated with the addition of ATP, following a fifteen minutes pre-incubation of enzyme and inhibitor at room temperature in the reaction mixture. The reaction was stopped after 45 minutes at room temperature by the addition of 50 μL of 80 mM EDTA, pH 7.5.

[2] = target: CDK6/Cyclin D1 (Homo sapiens (Human), UniProt Q00534); test: biochemical; settings: CDK6_Ki (nM), non-phosphorylated CDK6/Cyclin D1, 2 mM ATP, Morrison fit
CDK6/Cyclin D1, sequence (Q00534 whole entry): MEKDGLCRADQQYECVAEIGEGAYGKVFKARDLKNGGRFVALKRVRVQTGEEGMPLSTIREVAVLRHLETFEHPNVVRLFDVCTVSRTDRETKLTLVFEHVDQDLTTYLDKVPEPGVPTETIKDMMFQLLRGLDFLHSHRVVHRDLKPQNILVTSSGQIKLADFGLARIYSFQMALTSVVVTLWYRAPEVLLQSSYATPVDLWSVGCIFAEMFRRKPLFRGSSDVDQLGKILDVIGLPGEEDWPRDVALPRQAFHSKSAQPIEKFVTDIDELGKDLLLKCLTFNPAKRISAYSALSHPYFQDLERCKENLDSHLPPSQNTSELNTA
CDK6/Cyclin D1, sequence (P24385 whole entry partner): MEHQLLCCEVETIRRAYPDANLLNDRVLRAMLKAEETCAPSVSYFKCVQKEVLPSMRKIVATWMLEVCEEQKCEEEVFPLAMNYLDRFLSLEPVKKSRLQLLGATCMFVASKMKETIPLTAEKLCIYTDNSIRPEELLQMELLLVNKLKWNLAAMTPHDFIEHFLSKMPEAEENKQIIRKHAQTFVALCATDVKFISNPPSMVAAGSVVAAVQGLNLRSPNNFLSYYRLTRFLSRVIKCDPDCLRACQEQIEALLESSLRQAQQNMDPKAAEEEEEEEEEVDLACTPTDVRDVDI

`CS(=O)(=O)N1CCC(Nc2ncc3cc(C(F)F)c(=O)n(C4CCCC4)c3n2)CC1` [Example 30, 8-cyclopentyl-6-(difluoromethyl)-2-{[1-(methylsulfonyl)piperidin-4-yl]amino}pyrido[2,3-d]pyrimidin-7(8H)-one] gave a Ki [1] of 1.35 nM and a Ki [2] of 0.34 nM.

`CS(=O)(=O)N1CCC(Nc2ncc3cc(C(F)(F)C(=O)O)c(=O)n(C4CCCC4)c3n2)CC1` [Example 31, (8-cyclopentyl-2-{[1-(methylsulfonyl)piperidin-4-yl]amino}-7-oxo-7,8-dihydropyrido[2,3-d]pyrimidin-6-yl)(difluoro)acetic acid] showed a Ki [1] of 2.43 nM and a Ki [2] of 0.87 nM.

`Cc1cc2cnc(NC3CCN(S(C)(=O)=O)CC3)nc2n([C@@H]2CCC[C@@H]2C)c1=O` [Example 37, 6-methyl-8-[(1R,2S)-2-methylcyclopentyl]-2-{[1-(methylsulfonyl)piperidin-4-yl]amino}pyrido[2,3-d]pyrimidin-7(8H)-one] gave a Ki [1] of 0.06 nM and a Ki [2] of 0.06 nM.

For `C[C@H]1CCC[C@H]1n1c(=O)c(Cl)cc2cnc(NC3CCN(S(C)(=O)=O)CC3)nc21` [Example 38, 6-chloro-8-[(1R,2S)-2-methylcyclopentyl]-2-{[1-(methylsulfonyl)piperidin-4-yl]amino}pyrido[2,3-d]pyrimidin-7(8H)-one], the Ki [1] was 0.27 nM and the Ki [2] was 0.42 nM.

`C[C@H]1CCC[C@H]1n1c(=O)c(CCO)cc2cnc(NC3CCN(S(C)(=O)=O)CC3)nc21` [Example 40, 6-(2-hydroxyethyl)-8-[(1R,2S)-2-methylcyclopentyl]-2-{[1-(methylsulfonyl)piperidin-4-yl]amino}pyrido[2,3-d]pyrimidin-7(8H)-one] was tested, and the Ki [1] was 0.08 nM and the Ki [2] was 0.14 nM.

In the case of `C[C@@H]1CCC[C@@H]1n1c(=O)c(CCO)cc2cnc(NC3CCN(S(C)(=O)=O)CC3)nc21` [Example 41, 6-(2-hydroxyethyl)-8-[(1S,2R)-2-methylcyclopentyl]-2-{[1-(methylsulfonyl)piperidin-4-yl]amino}pyrido[2,3-d]pyrimidin-7(8H)-one], the Ki [1] is reported as 0.48 nM and the Ki [2] is reported as 0.36 nM.

`CNS(=O)(=O)N1CCC(Nc2ncc3cc(C)c(=O)n([C@@H]4CCC[C@@H]4C)c3n2)CC1` [Example 42, N-methyl-4-({6-methyl-8-[(1R,2S)-2-methylcyclopentyl]-7-oxo-7,8-dihydropyrido[2,3-d]pyrimidin-2-yl}amino)piperidine-1-sulfonamide] was tested, and the Ki [1] was 155 nM and the Ki [2] was 46.1 nM.

Compound `CNS(=O)(=O)N1CCC(Nc2ncc3ccc(=O)n([C@@H]4CCC[C@@H]4C)c3n2)CC1` [Example 44, N-methyl-4-({8-[(1R,2S)-2-methylcyclopentyl]-7-oxo-7,8-dihydropyrido[2,3-d]pyrimidin-2-yl}amino)piperidine-1-sulfonamide] has a Ki [1] of 0.09 nM and a Ki [2] of 0.82 nM.

With `C[C@H]1CCC[C@H]1n1c(=O)c(CC(N)=O)cc2cnc(NC3CCN(S(C)(=O)=O)CC3)nc21` [Example 47, 2-(8-[(1R,2S)-2-methylcyclopentyl]-2-{[1-(methylsulfonyl)piperidin-4-yl]amino}-7-oxo-7,8-dihydropyrido[2,3-d]pyrimidin-6-yl)acetamide] the Ki [1] was 0.27 nM and the Ki [2] was 1.09 nM.

Work on `COCc1cc2cnc(NC3CCN(S(C)(=O)=O)CC3)nc2n([C@@H]2CCC[C@@H]2C)c1=O` [Example 48, 6-(methoxymethyl)-8-[(1R,2S)-2-methylcyclopentyl]-2-{[1-(methylsulfonyl)piperidin-4-yl]amino}pyrido[2,3-d]pyrimidin-7(8H)-one] yielded a Ki [1] of 1.39 nM and a Ki [2] of 0.54 nM.

`COCc1cc2cnc(NC3CCN(S(C)(=O)=O)CC3)nc2n([C@H]2CCC[C@H]2C)c1=O` [Example 49, 6-(methoxymethyl)-8-[(1S,2R)-2-methylcyclopentyl]-2-{[1-(methylsulfonyl)piperidin-4-yl]amino}pyrido[2,3-d]pyrimidin-7(8H)-one] gave a Ki [1] of 4.43 nM and a Ki [2] of 1.63 nM.

For `C[C@H]1CCC[C@H]1n1c(=O)c(CO)cc2cnc(NC3CCN(S(C)(=O)=O)CC3)nc21` [Example 50, 6-(hydroxymethyl)-8-[(1R,2S)-2-methylcyclopentyl]-2-{[1-(methylsulfonyl)piperidin-4-yl]amino}pyrido[2,3-d]pyrimidin-7(8H)-one], the Ki [1] was 0.27 nM and the Ki [2] was 0.08 nM.

Compound `C[C@@H]1CCC[C@@H]1n1c(=O)c(CO)cc2cnc(NC3CCN(S(C)(=O)=O)CC3)nc21` [Example 51, 6-(hydroxymethyl)-8-[(1S,2R)-2-methylcyclopentyl]-2-{[1-(methylsulfonyl)piperidin-4-yl]amino}pyrido[2,3-d]pyrimidin-7(8H)-one] has a Ki [1] of 1.74 nM and a Ki [2] of 0.13 nM.

`COCCS(=O)(=O)N1CCC(Nc2ncc3ccc(=O)n([C@@H]4CCC[C@@H]4C)c3n2)CC1` [Example 52, 2-({1-[(2-methoxyethyl)sulfonyl]piperidin-4-yl}amino)-8-[(1R,2S)-2-methylcyclopentyl]pyrido[2,3-d]pyrimidin-7(8H)-one] showed a Ki [1] of 0.12 nM and a Ki [2] of 0.24 nM.

With `C[C@@]1(O)CCC[C@H]1n1c(=O)c(C(F)(F)F)cc2cnc(NC3CCN(S(C)(=O)=O)CC3)nc21` [Example 132, 8-[(1R,2R)-2-hydroxy-2-methylcyclopentyl]-2-{[1-(methylsulfonyl)piperidin-4-yl]amino}-6-(trifluoromethyl)pyrido[2,3-d]pyrimidin-7(8H)-one] the Ki [1] was 0.57 nM and the Ki [2] was 0.37 nM.

`CC(C)S(=O)(=O)N1CCC(Nc2ncc3cc(CCO)c(=O)n(C4CCCC4)c3n2)CC1` [Example 136, 8-cyclopentyl-6-(2-hydroxyethyl)-2-{[1-(propan-2-ylsulfonyl)piperidin-4-yl]amino}pyrido[2,3-d]pyrimidin-7(8H)-one] gave a Ki [1] of 3.14 nM and a Ki [2] of 1.35 nM.

With `C#CCCS(=O)(=O)N1CCC(Nc2ncc3cc(N)c(=O)n(C4CCCC4)c3n2)CC1` [Example 137, 6-amino-2-{[1-(but-3-yn-1-ylsulfonyl)piperidin-4-yl]amino}-8-cyclopentylpyrido[2,3-d]pyrimidin-7(8H)-one] the Ki [1] was 4.08 nM and the Ki [2] was 6.3 nM.

For `CS(=O)(=O)N1CCC(Nc2ncc3cc(CC(F)F)c(=O)n([C@@H]4CCC[C@@H](O)C4)c3n2)CC1` [Example 140, 6-(2,2-difluoroethyl)-8-[(1R,3R)-3-hydroxycyclohexyl]-2-{[1-(methylsulfonyl)piperidin-4-yl]amino}pyrido[2,3-d]pyrimidin-7(8H)-one], the Ki [1] was 1.97 nM and the Ki [2] was 0.63 nM.

`CCc1cc2cnc(NC3CCN(S(C)(=O)=O)CC3)nc2n(C2CCCC2)c1=O` [Example 141, 8-cyclopentyl-6-ethyl-2-{[1-(methylsulfonyl)piperidin-4-yl]amino}pyrido[2,3-d]pyrimidin-7(8H)-one] gave a Ki [1] of 1.25 nM and a Ki [2] of 0.37 nM.

With `COCc1cc2cnc(NC3CCN(S(C)(=O)=O)CC3)nc2n(C2CCCC2)c1=O` [Example 142, 8-cyclopentyl-6-(methoxymethyl)-2-{[1-(methylsulfonyl)piperidin-4-yl]amino}pyrido[2,3-d]pyrimidin-7(8H)-one] the Ki [1] was 1.88 nM and the Ki [2] was 0.55 nM.

Compound `CNS(=O)(=O)N1CCC(Nc2ncc3cc(CCO)c(=O)n(C4CCCC4)c3n2)CC1` [Example 146, 4-{[8-cyclopentyl-6-(2-hydroxyethyl)-7-oxo-7,8-dihydropyrido[2,3-d]pyrimidin-2-yl]amino}-N-methylpiperidine-1-sulfonamide] has a Ki [1] of 1.51 nM and a Ki [2] of 1.1 nM.

`CS(=O)(=O)N1CCC(Nc2ncc3cc(CC(=O)O)c(=O)n(C4CCCC4)c3n2)CC1` [Example 147, (8-cyclopentyl-2-{[1-(methylsulfonyl)piperidin-4-yl]amino}-7-oxo-7,8-dihydropyrido[2,3-d]pyrimidin-6-yl)acetic acid] gave a Ki [1] of 1.57 nM and a Ki [2] of 0.45 nM.

`CS(=O)(=O)N1CCC(Nc2ncc3cc(C(F)(F)F)c(=O)n(C4CCCC4)c3n2)CC1` [Example 148, 8-cyclopentyl-2-{[1-(methylsulfonyl)piperidin-4-yl]amino}-6-(trifluoromethyl)pyrido[2,3-d]pyrimidin-7(8H)-one] showed a Ki [1] of 4.18 nM and a Ki [2] of 0.26 nM.

Compound `CS(=O)(=O)N1CCC(Nc2ncc3cc(CCO)c(=O)n(C4CCCCCC4)c3n2)CC1` [Example 165, 8-cycloheptyl-6-(2-hydroxyethyl)-2-{[1-(methylsulfonyl)piperidin-4-yl]amino}-pyrido[2,3-d]pyrimidin-7(8H)-one] has a Ki [1] of 1.51 nM and a Ki [2] of 2.65 nM.

For `Cc1cc2cnc(NC3CCN(S(C)(=O)=O)CC3)nc2n([C@@H]2CCC[C@H]2O)c1=O` [Example 173, 8-[(1R,2R)-2-hydroxycyclopentyl]-6-methyl-2-{[1-(methylsulfonyl)piperidin-4-yl]amino}pyrido[2,3-d]pyrimidin-7(8H)-one], the Ki [1] was 2.95 nM and the Ki [2] was 3.52 nM.

`CC(C)(O)CS(=O)(=O)N1CCC(Nc2ncc3ccc(=O)n([C@@H]4CCC[C@@]4(C)O)c3n2)CC1` [Example 189, 8-[(1R,2R)-2-hydroxy-2-methylcyclopentyl]-2-({1-[(2-hydroxy-2-methylpropyl)sulfonyl]piperidin-4-yl}amino)pyrido[2,3-d]pyrimidin-7(8H)-one] gave a Ki [1] of 1.2 nM and a Ki [2] of 1.98 nM.

For `C[C@@]1(O)CCC[C@H]1n1c(=O)ccc2cnc(NC3CCN(S(=O)(=O)CS(C)(=O)=O)CC3)nc21` [Example 190, 8-[(1R,2R)-2-hydroxy-2-methylcyclopentyl]-2-[(1-{[(methylsulfonyl)methyl]sulfonyl}piperidin-4-yl)amino]pyrido[2,3-d] pyrimidin-7(8H)-one], the Ki [1] was 0.51 nM and the Ki [2] was 184 nM.

In the case of `CS(=O)(=O)N1CCC(Nc2ncc3ccc(=O)n([C@H]4CCC[C@H](O)C4)c3n2)CC1` [Example 211, 8-[(1S,3S)-3-hydroxycyclohexyl]-2-{[1-(methylsulfonyl)piperidin-4-yl]amino}pyrido[2,3-d]pyrimidin-7(8H)-one], the Ki [1] is reported as 2.19 nM and the Ki [2] is reported as 2.22 nM.

`CS(=O)(=O)N1CCC(Nc2ncc3cc(C(F)F)c(=O)n([C@@H]4CCC[C@@H](O)C4)c3n2)CC1` [Example 212, 6-(difluoromethyl)-8-[(1R,3R)-3-hydroxycyclohexyl]-2-{[1-(methylsulfonyl)piperidin-4-yl]amino}pyrido[2,3-d]pyrimidin-7(8H)-one] gave a Ki [1] of 1.2 nM and a Ki [2] of 0.17 nM.
